Experiments:
Assay in all cases: NanoBRET K192
Type in all cases: cell-based
CAMK2A = target: T1, CAMK2A (Homo sapiens, UniProt Q9UQM7); settings: HEK293
T1 construct: purchased Promega (NanoBRET Target Engagement K192 Kinase Selectivity System)
Protocol: (§1) The K192 selectivity assay was run according to the Draft Promega technical manual, NanoBRET^TM Target Engagement K192 Kinase Selectivity System. Reagents were supplied by Promega (Promega NP 4101). For the assay, DNA from the prepared kinase vector panel plates A and B were mixed with Fugene in 96-well plates (Corning 3917) and incubated at room temperature for 30 min. The NanoLuc® Low control vector pNL1.1.CMV [Nluc/CMV] Vector (Cat.# N1091) and the transfection control vector NanoLuc®-HIPK2 Fusion Vector (Cat.# NV3221) were used as controls.
(§2) HEK293 cells were grown to 75–95% confluency in DMEM (Gibco 11995-065) supplemented with FBS (Avantor 97068-085) at 37 °C in […]. On the first day of the assay, cells were harvested and resuspended in Opti-MEM (Gibco 11058-021) supplemented with 1% FBS (Avantor 97068-085) at 2.5 × 10^5 cells per mL. A volume of 60 μL of cell suspension was mixed with 10 μL of prepared DNA (10X concentration) and 30 μL of Fugene (30 μL/mL in Opti-MEM) as outlined by Promega and incubated overnight at 37 °C in a 5% CO2 incubator.
(§3) On day two of the assay, 5 μL of 20X K10 tracer was prepared and added at concentrations recommended by Promega. Then, 10 μL of test compounds at 100 μM in Opti-MEM (diluted from a 10 mM solution in DMSO) was added to the test wells while an equivalent volume of Opti-MEM was added to the high-control wells. Plates were kept at 37 °C in a 5% CO2 incubator for two hours. After two hours, plates were allowed to equilibrate to room temperature for 15 min. A solution of 3X Complete Substrate plus Inhibitor Solution was freshly prepared, consisting of a 1:166 dilution of NanoBRET™ Nano-Glo® Substrate plus a 1:500 dilution of Extracellular NanoLuc® Inhibitor in Opti-MEM® medium without serum or phenol red. A 50 μL volume of the 3X Complete Substrate plus Inhibitor Solution was added to each assay well, including control wells. After 2–3 min, the plate was shaken at 300 RPM for 10 s, and the donor emission wavelength (450 nm) and acceptor emission wavelength (610 nm) were measured using the Glomax® Discover System.
(§4) As a quality check, the donor signal-to-background ratio was calculated for each individual kinase by dividing the mean donor signal for each kinase by the mean donor signal for the signal-to-background control wells. Fractional occupancy of the test drug for each kinase was determined using the following formula:Occupancy (%) = [1 − (Sample − Bottom)/(Top − Bottom)] × 100 where

STK35 = target: T2, STK35 (Homo sapiens, UniProt Q8TDR2); settings: HEK293
T2 construct: purchased Promega (NanoBRET Target Engagement K192 Kinase Selectivity System)
Protocol: as §1, §2, §3, §4

CSNK2A1 = target: T3, CSNK2A1 (Homo sapiens, UniProt P68400)
T3 construct: expressed in transfected cells; host or cells: HEK293
T3 sequence (P68400 whole entry): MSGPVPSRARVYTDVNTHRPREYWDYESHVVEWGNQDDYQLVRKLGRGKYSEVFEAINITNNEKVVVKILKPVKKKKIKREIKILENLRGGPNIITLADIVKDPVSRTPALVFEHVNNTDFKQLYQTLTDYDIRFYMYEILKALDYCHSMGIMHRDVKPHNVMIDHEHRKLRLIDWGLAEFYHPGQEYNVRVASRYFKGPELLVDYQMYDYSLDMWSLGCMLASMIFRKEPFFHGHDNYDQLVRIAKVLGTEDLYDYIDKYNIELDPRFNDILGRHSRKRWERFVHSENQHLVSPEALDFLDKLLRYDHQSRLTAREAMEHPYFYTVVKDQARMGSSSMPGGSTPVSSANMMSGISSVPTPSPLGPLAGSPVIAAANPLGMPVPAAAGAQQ
Protocol: as §1, §2, §3, §4

TEC = target: T4, TEC (Homo sapiens, UniProt P42680); settings: HEK293
T4 construct: purchased Promega (NanoBRET Target Engagement K192 Kinase Selectivity System)
Protocol: as §1, §2, §3, §4

LIMK2 = target: T5, LIMK2 (Homo sapiens, UniProt P53671); settings: HEK293
T5 construct: purchased Promega (NanoBRET Target Engagement K192 Kinase Selectivity System)
Protocol: as §1, §2, §3, §4

CDK15 + Y = target: T6, CDK15 + Y (Homo sapiens, UniProt Q96Q40); settings: HEK293
T6 construct: purchased Promega (NanoBRET Target Engagement K192 Kinase Selectivity System)
Protocol: as §1, §2, §3, §4

GAK = target: T7, GAK (Homo sapiens, UniProt O14976); settings: HEK293
T7 construct: purchased Promega (NanoBRET Target Engagement K192 Kinase Selectivity System)
Protocol: as §1, §2, §3, §4

CAMK1 = target: T8, CAMK1 (Homo sapiens, UniProt Q14012); settings: HEK293
T8 construct: purchased Promega (NanoBRET Target Engagement K192 Kinase Selectivity System)
T8 sequence (Q14012 whole entry): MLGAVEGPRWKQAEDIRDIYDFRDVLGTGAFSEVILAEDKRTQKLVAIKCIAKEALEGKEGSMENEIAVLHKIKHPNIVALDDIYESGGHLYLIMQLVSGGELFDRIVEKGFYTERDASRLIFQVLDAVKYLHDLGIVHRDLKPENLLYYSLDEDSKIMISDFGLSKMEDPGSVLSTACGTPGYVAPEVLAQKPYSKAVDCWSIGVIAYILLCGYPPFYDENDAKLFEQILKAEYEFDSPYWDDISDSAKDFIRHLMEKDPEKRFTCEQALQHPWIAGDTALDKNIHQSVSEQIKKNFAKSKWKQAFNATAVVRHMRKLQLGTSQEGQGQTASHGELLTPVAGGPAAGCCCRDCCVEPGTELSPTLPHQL
Protocol: as §1, §2, §3, §4

PTK6 = target: T9, PTK6 (Homo sapiens, UniProt Q13882); settings: HEK293
T9 construct: purchased Promega (NanoBRET Target Engagement K192 Kinase Selectivity System)
Protocol: as §1, §2, §3, §4

MAP4K2 = target: T10, MAP4K2 (Homo sapiens, UniProt Q12851); settings: HEK293
T10 construct: purchased Promega (NanoBRET Target Engagement K192 Kinase Selectivity System)
T10 sequence (Q12851 whole entry): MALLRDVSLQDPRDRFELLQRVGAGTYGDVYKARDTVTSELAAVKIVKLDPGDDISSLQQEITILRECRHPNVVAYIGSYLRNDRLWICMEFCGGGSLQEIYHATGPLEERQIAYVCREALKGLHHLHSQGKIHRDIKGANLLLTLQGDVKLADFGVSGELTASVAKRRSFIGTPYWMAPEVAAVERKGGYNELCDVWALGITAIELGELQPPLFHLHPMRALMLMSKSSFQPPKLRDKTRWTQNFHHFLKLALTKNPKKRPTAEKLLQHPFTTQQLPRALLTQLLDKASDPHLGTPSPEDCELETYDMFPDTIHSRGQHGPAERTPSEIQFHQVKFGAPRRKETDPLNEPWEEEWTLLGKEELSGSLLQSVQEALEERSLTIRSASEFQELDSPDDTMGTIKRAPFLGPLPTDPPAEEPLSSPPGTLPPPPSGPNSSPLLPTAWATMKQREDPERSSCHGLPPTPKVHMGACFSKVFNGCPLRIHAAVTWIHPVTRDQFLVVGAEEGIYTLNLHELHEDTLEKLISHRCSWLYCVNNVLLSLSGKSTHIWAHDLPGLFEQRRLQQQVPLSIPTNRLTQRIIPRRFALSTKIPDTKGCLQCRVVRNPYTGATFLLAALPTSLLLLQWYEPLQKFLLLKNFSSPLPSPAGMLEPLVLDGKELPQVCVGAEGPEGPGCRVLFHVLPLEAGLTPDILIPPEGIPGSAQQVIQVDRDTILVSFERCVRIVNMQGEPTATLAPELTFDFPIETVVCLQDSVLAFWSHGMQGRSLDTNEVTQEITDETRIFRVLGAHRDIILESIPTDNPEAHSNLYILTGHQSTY
Protocol: as §1, §2, §3, §4

PKMYT1 = target: T11, PKMYT1 (Homo sapiens, UniProt Q99640); settings: HEK293
T11 construct: purchased Promega (NanoBRET Target Engagement K192 Kinase Selectivity System)
Protocol: as §1, §2, §3, §4

MET = target: T12, MET (Homo sapiens, UniProt P08581); settings: HEK293
T12 construct: purchased Promega (NanoBRET Target Engagement K192 Kinase Selectivity System)
Protocol: as §1, §2, §3, §4

AURK A = target: T13, AURK A (Homo sapiens, UniProt O14965); settings: HEK293
T13 construct: host or cells: HEK293
Protocol: as §1, §2, §3, §4

NEK5 = target: T14, NEK5 (Homo sapiens, UniProt Q6P3R8); settings: HEK293
T14 construct: purchased Promega (NanoBRET Target Engagement K192 Kinase Selectivity System)
T14 sequence (Q6P3R8 whole entry): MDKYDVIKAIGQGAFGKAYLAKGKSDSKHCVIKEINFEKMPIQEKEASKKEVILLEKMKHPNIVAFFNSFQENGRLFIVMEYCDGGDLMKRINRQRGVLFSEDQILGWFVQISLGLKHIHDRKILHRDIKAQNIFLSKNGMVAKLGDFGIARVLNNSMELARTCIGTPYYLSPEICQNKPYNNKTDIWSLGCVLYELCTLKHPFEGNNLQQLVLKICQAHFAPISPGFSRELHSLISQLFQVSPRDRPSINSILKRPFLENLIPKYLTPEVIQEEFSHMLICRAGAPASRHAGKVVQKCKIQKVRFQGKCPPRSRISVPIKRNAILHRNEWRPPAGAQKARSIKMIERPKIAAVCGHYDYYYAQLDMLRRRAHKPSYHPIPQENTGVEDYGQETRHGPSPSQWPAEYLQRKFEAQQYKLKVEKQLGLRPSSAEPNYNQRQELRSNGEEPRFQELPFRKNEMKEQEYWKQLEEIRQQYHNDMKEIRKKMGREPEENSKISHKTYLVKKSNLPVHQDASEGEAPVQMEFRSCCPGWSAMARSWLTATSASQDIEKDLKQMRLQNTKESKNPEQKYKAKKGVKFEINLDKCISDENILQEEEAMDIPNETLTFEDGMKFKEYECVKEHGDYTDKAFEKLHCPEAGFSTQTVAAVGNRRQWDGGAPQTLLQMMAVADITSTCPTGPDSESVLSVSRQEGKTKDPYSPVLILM
Protocol: as §1, §2, §3, §4

ERN1 = target: T15, ERN1 (Homo sapiens, UniProt O75460); settings: HEK293
T15 construct: purchased Promega (NanoBRET Target Engagement K192 Kinase Selectivity System)
T15 sequence (O75460 19-977): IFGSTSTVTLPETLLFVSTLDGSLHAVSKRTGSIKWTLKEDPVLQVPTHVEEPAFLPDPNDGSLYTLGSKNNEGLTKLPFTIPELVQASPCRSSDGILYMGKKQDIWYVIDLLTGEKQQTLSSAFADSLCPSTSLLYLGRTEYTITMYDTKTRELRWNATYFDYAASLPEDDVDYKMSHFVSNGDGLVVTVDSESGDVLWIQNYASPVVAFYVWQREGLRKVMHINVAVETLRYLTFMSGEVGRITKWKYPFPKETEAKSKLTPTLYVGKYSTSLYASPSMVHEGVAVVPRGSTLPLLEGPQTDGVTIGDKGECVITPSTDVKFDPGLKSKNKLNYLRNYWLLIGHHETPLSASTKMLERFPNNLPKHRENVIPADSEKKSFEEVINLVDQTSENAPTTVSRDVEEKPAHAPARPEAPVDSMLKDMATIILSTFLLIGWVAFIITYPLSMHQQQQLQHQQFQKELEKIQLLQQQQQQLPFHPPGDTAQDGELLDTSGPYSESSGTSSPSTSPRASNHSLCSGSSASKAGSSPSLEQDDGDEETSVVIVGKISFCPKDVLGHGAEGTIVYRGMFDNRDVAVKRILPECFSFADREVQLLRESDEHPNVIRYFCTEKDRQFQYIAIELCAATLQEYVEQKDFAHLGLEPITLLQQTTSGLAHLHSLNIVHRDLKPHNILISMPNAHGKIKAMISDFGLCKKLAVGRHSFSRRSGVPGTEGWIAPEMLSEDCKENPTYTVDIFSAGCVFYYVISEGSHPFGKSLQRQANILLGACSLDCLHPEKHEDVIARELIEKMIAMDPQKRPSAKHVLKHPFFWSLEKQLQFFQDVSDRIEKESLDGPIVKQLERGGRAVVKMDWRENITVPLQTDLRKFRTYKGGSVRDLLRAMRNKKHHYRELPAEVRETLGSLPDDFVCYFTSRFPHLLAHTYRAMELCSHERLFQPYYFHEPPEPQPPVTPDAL
Protocol: as §1, §2, §3, §4

NLK = target: T16, NLK (Homo sapiens, UniProt Q9UBE8); settings: HEK293
T16 construct: purchased Promega (NanoBRET Target Engagement K192 Kinase Selectivity System)
Protocol: as §1, §2, §3, §4

MAP3K3 = target: T17, MAP3K3 (Homo sapiens, UniProt Q99759); settings: HEK293
T17 construct: purchased Promega (NanoBRET Target Engagement K192 Kinase Selectivity System)
Protocol: as §1, §2, §3, §4

PLK2 = target: T18, PLK2 (Homo sapiens, UniProt Q9NYY3); settings: HEK293
T18 construct: purchased Promega (NanoBRET Target Engagement K192 Kinase Selectivity System)
Protocol: as §1, §2, §3, §4

JNK3 = target: T19, JNK3 (Homo sapiens, UniProt P53779); settings: HEK293
T19 construct: purchased Promega (NanoBRET Target Engagement K192 Kinase Selectivity System)
Protocol: as §1, §2, §3, §4

MAP3K21 = target: T20, MAP3K21 (Homo sapiens, UniProt Q5TCX8); settings: HEK293
T20 construct: purchased Promega (NanoBRET Target Engagement K192 Kinase Selectivity System)
T20 sequence (Q5TCX8 whole entry): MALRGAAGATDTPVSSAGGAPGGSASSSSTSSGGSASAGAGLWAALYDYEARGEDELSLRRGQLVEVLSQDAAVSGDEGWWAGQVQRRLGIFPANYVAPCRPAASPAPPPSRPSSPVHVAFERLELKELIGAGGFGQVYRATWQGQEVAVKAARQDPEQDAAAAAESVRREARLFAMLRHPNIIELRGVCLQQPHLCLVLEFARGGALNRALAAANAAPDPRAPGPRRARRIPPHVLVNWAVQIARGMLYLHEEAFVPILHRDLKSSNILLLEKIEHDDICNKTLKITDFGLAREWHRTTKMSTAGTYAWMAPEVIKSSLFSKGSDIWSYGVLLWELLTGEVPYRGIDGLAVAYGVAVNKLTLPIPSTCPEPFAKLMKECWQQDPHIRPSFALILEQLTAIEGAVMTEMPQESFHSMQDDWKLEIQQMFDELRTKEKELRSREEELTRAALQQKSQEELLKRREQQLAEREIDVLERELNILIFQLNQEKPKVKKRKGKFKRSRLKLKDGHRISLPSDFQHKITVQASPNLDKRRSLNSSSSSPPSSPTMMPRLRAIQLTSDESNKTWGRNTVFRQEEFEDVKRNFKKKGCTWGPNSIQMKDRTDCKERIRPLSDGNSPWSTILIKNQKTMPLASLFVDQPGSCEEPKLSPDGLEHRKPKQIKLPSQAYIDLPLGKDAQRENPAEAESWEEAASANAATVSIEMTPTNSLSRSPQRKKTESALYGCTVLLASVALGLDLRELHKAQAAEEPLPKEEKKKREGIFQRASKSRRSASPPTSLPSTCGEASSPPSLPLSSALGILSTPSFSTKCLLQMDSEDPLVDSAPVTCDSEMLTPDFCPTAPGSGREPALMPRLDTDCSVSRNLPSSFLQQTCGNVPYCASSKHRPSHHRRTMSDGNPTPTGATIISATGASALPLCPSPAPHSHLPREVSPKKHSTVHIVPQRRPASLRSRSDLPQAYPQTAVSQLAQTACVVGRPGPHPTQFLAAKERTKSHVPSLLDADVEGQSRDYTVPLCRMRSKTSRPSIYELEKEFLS
Protocol: as §1, §2, §3, §4

RPS6KA2 = target: T21, RPS6KA2 (Homo sapiens, UniProt Q15349); settings: HEK293
T21 construct: purchased Promega (NanoBRET Target Engagement K192 Kinase Selectivity System)
T21 sequence (Q15349 whole entry): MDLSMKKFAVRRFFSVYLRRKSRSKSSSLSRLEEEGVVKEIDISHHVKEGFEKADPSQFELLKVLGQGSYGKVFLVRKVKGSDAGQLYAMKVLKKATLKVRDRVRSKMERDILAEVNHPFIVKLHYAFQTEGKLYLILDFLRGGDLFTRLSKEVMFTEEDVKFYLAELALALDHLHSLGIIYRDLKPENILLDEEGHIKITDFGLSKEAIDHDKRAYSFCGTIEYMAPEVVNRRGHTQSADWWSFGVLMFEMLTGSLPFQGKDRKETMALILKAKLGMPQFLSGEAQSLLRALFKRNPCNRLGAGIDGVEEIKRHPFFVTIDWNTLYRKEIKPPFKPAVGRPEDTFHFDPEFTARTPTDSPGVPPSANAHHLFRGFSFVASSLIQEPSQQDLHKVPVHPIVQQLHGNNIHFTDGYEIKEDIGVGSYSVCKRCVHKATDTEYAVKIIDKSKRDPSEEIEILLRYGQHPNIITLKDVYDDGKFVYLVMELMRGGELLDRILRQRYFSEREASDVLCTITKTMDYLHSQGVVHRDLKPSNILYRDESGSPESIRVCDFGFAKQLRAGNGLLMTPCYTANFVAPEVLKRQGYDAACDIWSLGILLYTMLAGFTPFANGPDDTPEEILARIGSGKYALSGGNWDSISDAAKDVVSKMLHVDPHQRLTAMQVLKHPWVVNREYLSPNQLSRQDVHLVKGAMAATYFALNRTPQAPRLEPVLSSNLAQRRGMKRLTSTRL
Protocol: as §1, §2, §3, §4

STK38 = target: T22, STK38 (Homo sapiens, UniProt Q15208); settings: HEK293
T22 construct: purchased Promega (NanoBRET Target Engagement K192 Kinase Selectivity System)
Protocol: as §1, §2, §3, §4

JAK2 (V617F) = target: T23, JAK2 (V617F) (Homo sapiens, UniProt O60674, V617F); settings: HEK293
T23 construct: purchased Promega (NanoBRET Target Engagement K192 Kinase Selectivity System)
Protocol: as §1, §2, §3, §4

LIMK1 = target: T24, LIMK1 (Homo sapiens, UniProt P53667); settings: HEK293
T24 construct: purchased Promega (NanoBRET Target Engagement K192 Kinase Selectivity System)
Protocol: as §1, §2, §3, §4

MAP3K11 = target: T25, MAP3K11 (Homo sapiens, UniProt Q16584); settings: HEK293
T25 construct: purchased Promega (NanoBRET Target Engagement K192 Kinase Selectivity System)
Protocol: as §1, §2, §3, §4

PTK2B = target: T26, PTK2B (Homo sapiens, UniProt Q14289); settings: HEK293
T26 construct: purchased Promega (NanoBRET Target Engagement K192 Kinase Selectivity System)
Protocol: as §1, §2, §3, §4

MAP3K10 = target: T27, MAP3K10 (Homo sapiens, UniProt Q02779); settings: HEK293
T27 construct: host or cells: HEK293
Protocol: as §1, §2, §3, §4

For `CCC(=O)Nc1cc(Nc2cc(NC3CC3)n3ncc(C#N)c3n2)c(F)cc1N1CCC[C@H](NC)C1` [Compound 2, (S)-N-(5-((3-cyano-7-(cyclopropylamino)pyrazolo[1,5-a]pyrimidin-5-yl)amino)-4-fluoro-2-(3-(methylamino)piperidin-1-yl)phenyl)propionamide], the receptor occupancy at 10 µM (CAMK2A) was 12.4%, the receptor occupancy at 10 µM (STK35) was 6.5% and the “% occupancy at 10 μM” value (CSNK2A1; CSNK2A1, HEK293) was 97%. For the same molecule, the receptor occupancy at 10 µM (CSNK2A1; HEK293, CSNK2A1) was 97.3%, the receptor occupancy at 10 µM (TEC) was 9.1% and the receptor occupancy at 10 µM (LIMK2) was 1.1%. The receptor occupancy at 10 µM (CDK15 + Y) was 26.5%, the receptor occupancy at 10 µM (GAK) was 3.3% and the receptor occupancy at 10 µM (CAMK1) was 26.2%. It also gave a receptor occupancy at 10 µM (PTK6) of 4.4%, a receptor occupancy at 10 µM (MAP4K2) of 31.4% and a receptor occupancy at 10 µM (PKMYT1) of 5.5%. For the same molecule, the receptor occupancy at 10 µM (MET) was 12.3%, the receptor occupancy at 10 µM (AURK A) was -9.3% and the receptor occupancy at 10 µM (NEK5) was 24.8%. It also gave a receptor occupancy at 10 µM (ERN1) of 3%, a receptor occupancy at 10 µM (NLK) of 11.9% and a receptor occupancy at 10 µM (MAP3K3) of 10.1%. For the same molecule, the receptor occupancy at 10 µM (PLK2) was 29.6%, the receptor occupancy at 10 µM (JNK3) was 1% and the receptor occupancy at 10 µM (MAP3K21) was 4.8%. For the same molecule, the receptor occupancy at 10 µM (RPS6KA2) was 2.4%, the receptor occupancy at 10 µM (STK38) was -0.8% and the receptor occupancy at 10 µM (JAK2 (V617F)) was 13.1%. The receptor occupancy at 10 µM (LIMK1) was 6.6%, the receptor occupancy at 10 µM (MAP3K11) was 19.5% and the receptor occupancy at 10 µM (PTK2B) was -1.6%. It also gave a receptor occupancy at 10 µM (MAP3K10) of -2.4%.
